# Assay results from article PMC12646670, “Fatty acid transport protein 2 inhibition enhances glucose tolerance through α cell–mediated GLP-1 secretion” (The Journal of Clinical Investigation, 2025).
# Molecular target: T1, FATP2 (Mus musculus, UniProt O35488)
# T1 construct: gene Slc27a2; endogenous full-length FATP2 in native mouse αTC1-6 pancreatic α cell line (ATCC)
# Assay: BODIPY-labelled C18 fatty acid uptake (QBT fluorescence assay)
# Assay type: cell-based
# Conditions: native αTC1-6 cells; 1 h preincubation, 37°C; 2.5 μM BODIPY-C18 fatty acid with 0.2% fatty acid-free albumin; uptake read at 60 s
# Text: BODIPY-labelled C18 fatty acid uptake (QBT fluorescence assay) on FATP2 | fatty acid uptake was blocked by the FATP2 inhibitor lipofermata
# T1 sequence (O35488 whole entry): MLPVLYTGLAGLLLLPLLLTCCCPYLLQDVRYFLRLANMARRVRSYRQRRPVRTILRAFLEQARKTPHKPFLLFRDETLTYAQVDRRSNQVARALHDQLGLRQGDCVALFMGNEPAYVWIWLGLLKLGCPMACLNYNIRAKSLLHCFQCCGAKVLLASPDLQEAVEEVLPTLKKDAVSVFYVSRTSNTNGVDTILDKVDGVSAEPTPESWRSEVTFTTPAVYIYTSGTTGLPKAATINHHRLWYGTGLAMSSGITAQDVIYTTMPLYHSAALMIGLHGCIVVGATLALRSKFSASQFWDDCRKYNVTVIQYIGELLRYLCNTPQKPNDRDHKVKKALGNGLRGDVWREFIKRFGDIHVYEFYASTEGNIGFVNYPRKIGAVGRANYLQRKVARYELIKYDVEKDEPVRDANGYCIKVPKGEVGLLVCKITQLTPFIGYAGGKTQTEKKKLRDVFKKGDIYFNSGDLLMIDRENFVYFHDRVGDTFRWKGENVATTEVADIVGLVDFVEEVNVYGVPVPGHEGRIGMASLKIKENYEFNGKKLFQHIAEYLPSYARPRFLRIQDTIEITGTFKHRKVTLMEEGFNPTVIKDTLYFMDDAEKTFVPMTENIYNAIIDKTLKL
smiles,measurement,value
"O=C1Nc2ccc(Br)cc2C12NN=C(c1ccccc1)S2 (stereo not shown) [lipofermata, 5-bromo-5′-phenylspiro[3H-1,3,4-thiadiazole-2,3′-indoline]-2-1]",IC50,5.4 µM
